Structures can show the parent of a compound that is named as a salt.
What was measured:
[1] = biological target: T1, serotonin transporter (SERT) (Rattus norvegicus, UniProt P31652); assay: In vitro binding affinity for serotonin transporter ([3H]-citalopram displacement); settings: rat cerebral cortex, read-out: SERT Ki ± SEM
T1 construct: Rat cerebral cortex was homogenized in 30 volumes of ice-cold 50 mM Tris-HCl; from tissue; host or cells: rat cerebral cortex (membrane pellet)
Procedure: The experiments were performed according to the method described by Owens et al. Rat cerebral cortex was homogenized in 30 volumes of ice-cold 50 mM Tris-HCl containing 150 mM NaCl and 5 mM KCl, pH 7.7 at 25 °C and centrifuged at 20,000 × g for 20 min. The supernatant was decanted, and the pellet was resuspended in 30 volumes of buffer and centrifuged three times. The final pellet was suspended in Tris-HCl buffer at a proportion of approximately 5 mg wet weight/mL. An increasing concentration of the analyzed compounds (30 μL) was added to the incubation mixture containing 240 μL of tissue suspension and 30 μL of 1 nM [^3H]-citalopram (used for labeling 5-HT-transporter). Non-specific binding was determined in the presence 30 μL of 1 μM imipramine (displacer). Duplicate samples were incubated at room temperature for 1 h. The incubation was terminated by rapid filtration over fiberglass filters FilterMate B (Perkin Elmer, Waltham, MA, USA) using a 96-well FilterMate harvester (PerkinElmer, Waltham, MA, USA). The radioactivity of the filters was measured with a MicroBeta TriLux 1450 scintillation counter. Ki values were calculated from the Cheng–Prusoff equation [31]: (1) Ki=IC50/1+Lo/KD where Lo is the labeled ligand concentration, and KD is the dissociation constant of the labeled ligand.

PC-3 cells = assay: MTT cell survival assay, PC-3 cells; format: cell-based, human; settings: for IC50: Homo sapiens, PC-3 cells, MTT, 72 h; for Selectivity Index: IC50 Balb/c 3T3 / IC50 PC-3
Procedure: (§1) The effects of the test compounds on the survival of PC-3, SH-SY5Y, Balb/c 3T3 and HEK293 cells was measured with the aid of the 3-(4,5-dimethylthiazol-2-yl)-2,5-diphenyltetrazolium bromide (MTT) assay. The cells were cultured in 96-well plates (100 μL/well) for 72 h. The optimized initial densities were the following: for PC-3—60,000 cells/mL, SH-SY5Y and Balb/c 3T3—50,000 cells/mL.
(§2) After 20 h preincubation and evaluation of the uniformity of cell growth, the medium was aspirated, and the respective solutions of the substances were added to the culture medium. Control cells were only treated the solvent used for the compounds and medium alone.
(§3) MTT (3-(4,5-dimethylthiazol-2-yl)-2,5-diphenyltetrazolium bromide) is reduced by intracellular dehydrogenase, which is present only in live cells (mitochondria), to purple, water-insoluble formazan. After it is dissolved, formazan absorbance of the resulting solution is directly proportional to the number of living cells in culture.
(§4) After appropriate incubation, the culture medium was removed. Next, 50 μL of MTT solution (0.5 mg/mL) diluted in PBS to 0.5 mg/mL was added to each well. […] Then, the precipitated formazan was dissolved by the addition of 200 μL isopropanol. […] The plates were sealed to reduce evaporation before incubation. The test was performed in three to five independent experiments with four times the measured concentration tested. The cell survival percentage was determined as % of controls, which were cells treated with the test compound solvent at the highest concentration.

SH-SY5Y cells = assay: MTT cell survival assay, SH-SY5Y cells; format: cell-based, human; settings: for IC50: Homo sapiens, SH-SY5Y cells, MTT, 72 h; for Selectivity Index: IC50 Balb/c 3T3 / IC50 SH-SY5Y
Procedure: as §1, §2, §3, §4

Balb/c 3T3 cells = assay: MTT cell survival assay, Balb/c 3T3 cells (normal reference); format: cell-based, murine; settings: Mus musculus, BALB/c3T3, 72 h
Procedure: as §1, §2, §3
After appropriate incubation, the culture medium was removed. Next, 50 μL of MTT solution (0.5 mg/mL) diluted in PBS to 0.5 mg/mL was added to each well. The plates were incubated for 3 h at 37 °C. Then, the precipitated formazan was dissolved by the addition of 200 μL isopropanol. After a 24-hour incubation at 4 °C in the dark, the absorbance of the dissolved formazan was measured at 570 nm (the maximum absorption of formazan) and at 690 nm (reference wavelength) using a Power Wave XS microplate spectrophotometer (Bio-Tek, Winooski, VT, USA). The plates were sealed to reduce evaporation before incubation. The test was performed in three to five independent experiments with four times the measured concentration tested. The cell survival percentage was determined as % of controls, which were cells treated with the test compound solvent at the highest concentration.

5-HT1A receptor [2] = biological target: T2, 5-HT1A receptor (Homo sapiens, UniProt P08908); assay: cAMP level (HTRF) in HEK293 cells that overexpress the 5-HT1AR gene; format: cell-based
T2 construct: EGFP; expressed in transfected cells
T2 sequence (P08908 1-422): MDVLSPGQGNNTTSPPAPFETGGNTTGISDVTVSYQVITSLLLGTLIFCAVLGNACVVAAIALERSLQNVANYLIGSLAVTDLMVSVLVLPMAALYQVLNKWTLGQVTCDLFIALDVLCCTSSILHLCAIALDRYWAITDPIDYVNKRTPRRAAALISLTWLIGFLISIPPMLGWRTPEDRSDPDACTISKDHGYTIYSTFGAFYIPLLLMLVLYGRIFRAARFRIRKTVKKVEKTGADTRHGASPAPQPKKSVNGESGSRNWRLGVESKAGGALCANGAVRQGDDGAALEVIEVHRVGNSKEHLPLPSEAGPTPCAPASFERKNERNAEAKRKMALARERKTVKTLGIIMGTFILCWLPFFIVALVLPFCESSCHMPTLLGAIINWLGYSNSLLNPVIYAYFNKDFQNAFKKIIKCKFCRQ
Procedure: (§5) The examination of the functional activity read out as cAMP level inhibition and ERK1/2 and Akt1 phosphorylation was performed according to the instructions of the One-plate Cisbio Bioassays cAMP dynamic 2, phospho-ERK (Thr202/Tyr204) and Akt1 phospho- S473 Cellular Assay Kits respectively, using a HEK293 human fibroblast cell line that overexpresses 5-HT1A receptors. […] The cAMP levels in PC-3 cells were determined using 600,000 cells/mL. Receptor activation with the appropriate ligands was carried out for 30 min, and then the cells were lysed. The results were analyzed with GraphPad Prism v 6.0 (GraphPad Software, San Diego, CA, USA) using its in-built functions. Ligand activity was determined using a 4-parameter equation of the dose-response function. […] M.
(§6) All compounds were tested with both agonists and antagonists. To test the response of cAMP to an agonist the cells were activated with forskolin (1 µM) followed by agonist addition. […] Data are an average of minimum three independent experiments in duplicate. The control of specific activity was measured under the same conditions on cells lacking the 5-HT1A receptor. The results were expressed as % of the reference agonist activity. In the antagonist mode 100% of the reference agonist activity (EC80) corresponded to 0% antagonist activity.

5-HT1A receptor [3] = biological target: T2, 5-HT1A receptor; assay: ERK1/2 phosphorylation (HTRF) in HEK293 cells that overexpress the 5-HT1AR gene; format: cell-based; settings: for EC50: agonist mode, HEK293-5-HT1A cells, read-out: ERK1/2 EC50
Procedure: as §5, §6

[4] = parameters: method as in PMID 23574807; settings: Porsolt forced swim test; cited from earlier work
[5] = test system: PC-3 prostate cancer cells; assay: Apoptosis determination (FITC Annexin V, flow cytometry) in PC-3 cells; format: cell-based, human; settings: 72 h, sum of early and late apoptosis
Procedure: Apoptosis was measured using the FITC Annexin V Apoptosis Detection Kit I (BD Biosciences, San Jose, CA, USA). Cells, after incubations 72 h with tested agents, were centrifuged, rinsed twice with cold phosphate-buffered saline (PBS) and suspended in binding buffer at 1 × 10^6 cells/mL. Then, 100-μL volumes of the cell suspensions were labeled according to the manufacturer’s instructions. Flow cytometry analysis was performed within 1 h after labeling. Flow cytometry analyses was run on a FACSCanto II flow cytometer (BD Biosciences, San Jose CA, USA) and analyzed using BD FACSDiva software.

T1 sequence (P31652 whole entry): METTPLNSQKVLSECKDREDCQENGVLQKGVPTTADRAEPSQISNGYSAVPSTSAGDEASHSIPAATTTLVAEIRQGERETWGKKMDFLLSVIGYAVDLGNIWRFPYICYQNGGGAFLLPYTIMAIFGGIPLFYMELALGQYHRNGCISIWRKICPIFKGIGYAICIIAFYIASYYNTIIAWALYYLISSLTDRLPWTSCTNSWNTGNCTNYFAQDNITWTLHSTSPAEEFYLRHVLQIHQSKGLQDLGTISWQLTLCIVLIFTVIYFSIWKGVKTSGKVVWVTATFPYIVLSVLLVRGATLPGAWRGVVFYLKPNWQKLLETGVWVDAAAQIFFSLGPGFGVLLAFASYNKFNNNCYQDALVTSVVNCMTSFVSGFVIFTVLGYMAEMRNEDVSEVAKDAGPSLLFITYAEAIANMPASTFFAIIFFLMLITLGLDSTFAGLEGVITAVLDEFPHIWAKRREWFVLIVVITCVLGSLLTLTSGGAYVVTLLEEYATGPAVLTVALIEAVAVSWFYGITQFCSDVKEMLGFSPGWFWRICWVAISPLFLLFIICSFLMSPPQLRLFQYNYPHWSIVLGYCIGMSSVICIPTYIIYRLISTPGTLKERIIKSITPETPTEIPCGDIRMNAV

Row | SMILES | Ki [1] [µM] | IC50 (5-HT1A receptor [2]) [µM] | IC50 (5-HT1A receptor [3]) [µM] | melting point [°C] | EC50 (5-HT1A receptor [3]) [µM] | IC50 (PC-3 cells) [µM] | Selectivity Index (PC-3 cells) | IC50 (SH-SY5Y cells) [µM] | Selectivity Index (SH-SY5Y cells) | IC50 (Balb/c 3T3 cells) [µM] | antidepressant activity [4] | apoptosis ([5]; 25 μM) [%] | apoptosis ([5]; 50 μM) [%] | apoptosis ([5]; 75 μM) [%] | Selectivity Index (PC-3 cells; listed as KW117 (6))
1 | Cl.O=[N+]([O-])c1ccc2nc(N3CCN(Cc4ccc(F)cc4)CC3)ccc2c1 [AB5A, 2-[4-(4-fluorobenzyl)piperazin-1-yl]-6-nitroquinoline hydrochloride] | 0.0074 ± 0.0024 | 96.9 | 17.9 | – | – | 27.2 ± 3.2 | 1.43 | 18.1 ± 1.68 | 2.15 | 38.9 ± 4.08 | – | – | – | – | –
2 | Cl.O=[N+]([O-])c1ccc2nc(N3CCN(CC4CCCCC4)CC3)ccc2c1 [AB21, 2-[4-(cyclohexylmethyl)piperazin-1-yl]-6-nitroquinoline hydrochloride] | 0.0149 ± 0.0016 | 0.002 | 0.78 | 107 to 108 | – | 18 ± 1.88 | 1.14 | 21.6 ± 1.07 | 0.95 | 20.5 ± 3.5 | – | – | – | – | –
3 | Cl.O=[N+]([O-])c1ccc2nc(N3CCN(CC4CCC4)CC3)ccc2c1 [AB22, 2-[4-(cyclobutylmethyl)piperazin-1-yl]-6-nitroquinoline hydrochloride] | 0.0076 ± 0.0008 | 76.1 | – | 99 to 101 | 0.0138 | 23.5 ± 2.21 | 1.51 | 35 ± 8.96 | 1.01 | 35.5 ± 8.71 | – | – | – | – | –
4 | CNCCC(Oc1ccc(C(F)(F)F)cc1)c1ccccc1 (stereo not drawn) [Fluoxetine, fluoxetine, reference compound] | – | – | – | – | – | – | – | – | – | – | – | 21 | 60 | 80 | –
5 | COCCCC/C(=N\OCCN)c1ccc(C(F)(F)F)cc1 [Fluvoxamine, fluvoxamine, reference compound] | – | – | – | – | – | 47.8 ± 2.85 | – | 89.4 ± 3.64 | – | 52 ± 5.4 | – | – | – | – | –
6 | COCCCC/C(=N\OCCNC(C)=O)c1ccc(C(F)(F)F)cc1 [N-Ac-Fluvoxamine, reference compound] | – | 20.1 | 11.2 | – | – | 92.2 ± 9.65 | – | 112 ± 3.85 | 1.21 | 136 ± 3.95 | – | – | – | – | –
7 | CC(=O)N1CCC(c2ccc(F)cc2)C(COc2ccc3c(c2)OCO3)C1 (stereo not drawn) [N-Ac-Paroxetine, reference compound] | – | 1 | – | – | 4.23 | 45.3 ± 1.44 | 1.46 | 65.6 ± 1.01 | 1.01 | 66.2 ± 2.35 | – | – | – | – | –
8 | Fc1ccc([C@@H]2CCNC[C@H]2COc2ccc3c(c2)OCO3)cc1 [Paroxetine, paroxetine, reference compound] | – | 0.0511 | – | – | 0.15 | 12.1 ± 0.37 | 1.23 | 18.1 ± 0.48 | 0.82 | 14.9 ± 0.24 | – | – | – | – | –
9 | COc1ccccc1N1CCN(CCN(C(=O)C2CCCCC2)c2ccccn2)CC1 [WAY100635, N-[2-[4-(2-Methoxyphenyl)-1-piperazinyl]ethyl]-N-2-pyridinylcyclohexanecarboxamide maleate, reference compound] | – | – | – | – | – | 43.3 ± 4.05 | – | 74.3 ± 11.8 | – | 88 ± 13.5 | – | – | – | – | –

Further lines, with some results ahead:

Row | Ki [1] [µM] | IC50 (5-HT1A receptor [2]) [µM] | IC50 (5-HT1A receptor [3]) [µM] | melting point [°C] | EC50 (5-HT1A receptor [3]) [µM] | SMILES | IC50 (PC-3 cells) [µM] | Selectivity Index (PC-3 cells) | IC50 (SH-SY5Y cells) [µM] | Selectivity Index (SH-SY5Y cells) | IC50 (Balb/c 3T3 cells) [µM] | antidepressant activity [4] | apoptosis ([5]; 25 μM) [%] | apoptosis ([5]; 50 μM) [%] | apoptosis ([5]; 75 μM) [%] | Selectivity Index (PC-3 cells; listed as KW117 (6))
10 | – | 9.7 | 1.28 | – | – | CCCCCCCCCN1CCN(c2ccc3cc([N+](=O)[O-])ccc3n2)CC1 [AZ05, 6-nitro-2-(4-nonylpiperazin-1-yl)quinolone hydrochloride] | 9.85 ± 0.79 | 2.48 | 17.3 ± 1.85 | 1.41 | 24.4 ± 1.49 | moderate antidepressant activity | – | – | – | –
11 | – | 0.73 | 0.9 | – | – | CCCCCCCCCCCN1CCN(c2ccc3cc([N+](=O)[O-])ccc3n2)CC1.Cl [AZ07, 6-nitro-2-(4-undecylpiperazin-1-yl)quinoline hydrochloride] | 5.74 ± 1.02 | 2.00 | 9.15 ± 0.74 | 1.26 | 11.5 ± 0.62 | moderate antidepressant activity | 20 | 35 | 44 | –
12 | – | – | 7.18 | – | – | CCCCCCCCN1CCN(c2ccc3cc([N+](=O)[O-])ccc3n2)CC1.Cl [KW117, 6-nitro-2-(4-octylpiperazin-1-yl)quinoline hydrochloride] | 14.4 ± 1.7 | – | 25.4 ± 2.66 | 1.50 | 38.1 ± 6.54 | moderate antidepressant activity | – | – | – | 2.65

Source: publication PMC6214143, “Oncotoxic Properties of Serotonin Transporter Inhibitors and 5-HT1A Receptor Ligands” (International Journal of Molecular Sciences, 2018)
